# Reference: patent publication US11319322B2, “Substituted aryl ether compound, preparation method thereof, pharmaceutical composition and use thereof” (Xiamen University, priority 2017, dated 2022)
# Columns and labels:
# Format in all cases: cell-based
# CCDC6-RET-BaF3 = biological target: T1, CCDC6-RET-BaF3 (Homo sapiens, UniProt P07949); assay: Growth inhibition of CCDC6-RET-BaF3 cells stably transfected with kinase (MTS); conditions: 48 h, read-out: CCDC6-RET (IC50/nM)
# T1 construct: fused on or other part: Q16204 (Coiled-coil domain-containing protein 6)
# Outline: (§1)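 BaF3 cells stably expressing CCDC6-RET or KIF5B-RET, or parental BaF3, 2×10^4 cells/well, treated 48 h at 37 °C with 8-point 1:3 dilutions from 10 μM (0.1% DMSO). MTS/PES added 1–4 h, OD490 read; inhibition versus DMSO and blank gave IC50.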
# KIF5B-RET-BaF3 = biological target: T2, KIF5B-RET-BaF3 (Homo sapiens, UniProt P07949); assay: Growth inhibition of KIF5B-RET-BaF3 cells stably transfected with kinase (MTS); conditions: 48 h, read-out: KIF5B-RET (IC50/nM)
# T2 construct: fused on or other part: P33176 (Kinesin-1 heavy chain)
# Outline: as §1
# wild-type BaF3 = assay: Growth inhibition of wild-type BaF3 cells, broad-spectrum toxicity (MTS); conditions: Mus musculus, 48 h, read-out: WT Ba/F3 (IC50/nM)
# Description: Growth inhibitory activity of compounds on cell lines stably transfected with kinase
# The activity of compounds against kinase RET is evaluated by their effect of inhibiting growth of cell lines stably transfected with kinase CCDC6-RET-BaF3, KIF5B-RET-BaF3, and wild-type BaF3 (Proc. Natl. Acad. Sci. USA., 2006, 103, 3153-8.). The growth of the cell lines stably transfected with kinase CCDC6-RET-BaF3, KIF5B-RET-BaF3 depends on their kinase activity. If a compound can inhibit the activity of the kinase RET per se or the activity of the RET signaling pathway, the compound can inhibit the growth of BaF3 cells stably transfected with kinase. […] Therefore, a larger ratio between IC50 of a compound to wild-type BaF3 and IC50 of the compound to the cell lines stably transfected with kinase CCDC6-RET-BaF3, KIF5B-RET-BaF3 indicates better targeting.
# The specific test method is given as follows:
# 1) Medium: DMEM (Dulbecco's modified eagle medium) or RPMI 1640 (containing 10% fetal bovine serum, 100 μg/mL ampicillin, 100 μg/mL streptomycin).
# 2) Reagents: MTS reaction solution (containing 2 mg/mL of MTS [3-(4,5-dimethylthiazol-2-yl)-5-(3-carboxymethoxyphenyl)-2-(4-sulfophenyl)-2H-tetrazolium, inner Salt]; 100 μg/mL PES (phenazine […])).
# 3) Compound test: cells stably transfected with kinase (CCDC6-RET-BaF3, KIF5B-RET-BaF3) or wild-type BaF3 cells (2×10^4 cells/well) were incubated into a 96-well culture plate, the volume of cell culture fluid was 90 μL, and then 10 μL of the compound at each gradient concentration was added (the highest concentration was 10 μM, which was diluted stepwise by ⅓, and 8 concentration points were set in total; the system contained 0.1% DMSO (dimethyl sulfoxide)). The cell plate with uniformly mixed compound was cultured in a cell culture incubator (37° C.; 5% CO2) for 48 h, then 20 μL of MTS reaction solution was added, uniformly mixed and incubated in the cell culture incubator (37° C.; 5% CO2) for 1-4 hr, OD values at 490 nm were measured by a microplate reader (VARIOSKAN FLASH, Thermo). Three parallels were set in each group of experiments, with 0.1% (a final concentration) DMSO as a negative control, and a medium without cells or compounds as a blank control. The cell growth inhibition rate was calculated by the following formula: Cell growth inhibition rate %=1−(ODexperimental group−ODblank group)/(ODnegative group−ODblank group)×100%
# 4) IC50 calculation: The semi-inhibitory concentration of the compound acting on cell growth was calculated using GradPad Prism 5 software according to the measured cell growth inhibition rate.
# T2 sequence (P07949 whole entry, change not shown, the tested form may be a part): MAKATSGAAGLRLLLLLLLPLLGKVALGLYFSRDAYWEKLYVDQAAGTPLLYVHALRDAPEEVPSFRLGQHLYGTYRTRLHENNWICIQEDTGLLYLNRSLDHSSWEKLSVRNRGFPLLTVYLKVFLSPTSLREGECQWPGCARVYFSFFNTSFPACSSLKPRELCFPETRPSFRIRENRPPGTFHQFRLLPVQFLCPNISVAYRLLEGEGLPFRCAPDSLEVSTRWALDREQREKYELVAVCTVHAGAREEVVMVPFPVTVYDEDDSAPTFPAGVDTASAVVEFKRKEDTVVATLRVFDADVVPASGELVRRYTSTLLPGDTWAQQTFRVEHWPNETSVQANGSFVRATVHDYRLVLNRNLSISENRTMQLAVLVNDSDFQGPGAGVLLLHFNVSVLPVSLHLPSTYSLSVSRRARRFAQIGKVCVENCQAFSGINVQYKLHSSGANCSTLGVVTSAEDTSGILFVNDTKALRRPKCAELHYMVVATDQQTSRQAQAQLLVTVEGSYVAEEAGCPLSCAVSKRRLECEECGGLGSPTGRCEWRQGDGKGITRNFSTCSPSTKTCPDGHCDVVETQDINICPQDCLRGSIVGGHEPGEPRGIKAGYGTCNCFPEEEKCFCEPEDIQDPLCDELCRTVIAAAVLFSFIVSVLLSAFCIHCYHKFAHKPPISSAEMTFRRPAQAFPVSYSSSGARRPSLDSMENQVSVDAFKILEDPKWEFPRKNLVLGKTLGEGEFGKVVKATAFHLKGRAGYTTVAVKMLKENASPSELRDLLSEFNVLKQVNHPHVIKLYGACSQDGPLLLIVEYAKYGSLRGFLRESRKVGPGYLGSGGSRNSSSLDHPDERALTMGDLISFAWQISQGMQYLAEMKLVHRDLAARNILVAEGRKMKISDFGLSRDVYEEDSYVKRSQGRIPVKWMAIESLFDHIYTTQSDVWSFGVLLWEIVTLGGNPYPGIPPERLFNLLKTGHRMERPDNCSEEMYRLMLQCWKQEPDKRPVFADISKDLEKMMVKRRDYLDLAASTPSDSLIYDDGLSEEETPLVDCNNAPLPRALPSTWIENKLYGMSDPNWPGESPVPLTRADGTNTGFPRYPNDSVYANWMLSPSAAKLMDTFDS
# T1 sequence (P07949 whole entry, change not shown, the tested form may be a part): as above
Structure (SMILES),GI50 (CCDC6-RET-BaF3) [nM],GI50 (KIF5B-RET-BaF3) [nM],IC50 (wild-type BaF3) [nM]
Cc1ccc(Oc2nc(-c3ccsc3)nc3c2ncn3C)cc1NC(=O)c1ccc(CN2CCN(C)CC2)c(C(F)(F)F)c1 [I-j-7],1030,1440,2410
Cc1ccc(Oc2nc(-c3ccc(N)cc3)nc3c2ncn3C)cc1NC(=O)c1ccc(CN2CCN(C)CC2)c(C(F)(F)F)c1 [I-j-5],1880,2370,4200
Cc1ccc(C(=O)Nc2ccc(CN3CCN(C)CC3)c(C(F)(F)F)c2)cc1Oc1nc(-c2cccnc2)nc2ccn(C)c12 [III-m-9],1250,3050,1440
Cc1ccc(C(=O)Nc2ccc(CN3CCN(C)CC3)c(C(F)(F)F)c2)cc1Oc1nc(-c2cccc(O)c2)nc2ccn(C)c12 [III-m-15],2960,3930,7210
Cc1ccc(Oc2nc(-c3ccc(Cl)cc3)nc3cc[nH]c23)cc1NC(=O)c1ccc(CN2CCN(C)CC2)c(C(F)(F)F)c1 [III-j-11],1530,1570,1360
Cc1ccc(C(=O)Nc2cc(CN3CCN(C)CC3)cc(C(F)(F)F)c2)cc1Oc1nc(-c2ccncc2)nc2ccn(C)c12 [III-q-4],901,1270,1330
Cc1ccc(C(=O)Nc2ccc(CN3CCN(C)CC3)c(C(F)(F)F)c2)cc1Oc1nc(-c2cccc(Cl)c2)nc2cc[nH]c12 [III-m-5],3760,4040,3920
Cc1ccc(Oc2nc(-c3ccoc3)nc3ccn(C)c23)cc1NC(=O)c1ccc(CN2CCN(C)CC2)c(C(F)(F)F)c1 [III-j-10],234,428,1460
Cc1ccc(Oc2nc(-c3ccncc3)nc3[nH]ncc23)cc1NC(=O)c1ccc(CN2CCN(C)CC2)c(C(F)(F)F)c1 [II-j-6],7.96,44.2,4230
Cc1ccc(Oc2nc(-c3ccc(O)cc3)nc3ccn(C)c23)cc1NC(=O)c1ccc(CN2CCN(C)CC2)c(C(F)(F)F)c1 [III-j-14],876,1380,1340
CN1CCN(Cc2ccc(NC(=O)c3cc(Oc4nc(-c5cccnc5)nc5ccn(C)c45)ccc3Cl)cc2C(F)(F)F)CC1 [III-o-3],1280,1330,1300
Cc1ccc(Oc2nc(-c3ccsc3)nc3cc[nH]c23)cc1NC(=O)c1ccc(CN2CCN(C)CC2)c(C(F)(F)F)c1 [III-j-4],1360,1720,3410
Cc1ccc(C(=O)Nc2ccc(CN3CCN(C)CC3)c(C(F)(F)F)c2)cc1Oc1nc(N(C)C)nc2ccn(C)c12 [III-m-24],3120,3230,3080
CN1CCN(Cc2ccc(NC(=O)c3cccc(Oc4cc(-c5cccnc5)nc5c4ccn5C)c3)cc2C(F)(F)F)CC1 [V-I-3],587,595,1240
Cc1ccc(C(=O)Nc2ccc(CN3CCN(C)CC3)c(C(F)(F)F)c2)cc1Oc1nc(-c2ccccc2)nc2cc[nH]c12 [III-m-3],2710,2410,3100
CN1CCN(Cc2ccc(NC(=O)c3cccc(Oc4nc(-c5cccnc5)nc5c4ncn5C)c3)cc2C(F)(F)F)CC1 [I-l-2],3610,–,1360

Structure (SMILES),GI50 (CCDC6-RET-BaF3) [nM],GI50 (KIF5B-RET-BaF3) [nM],IC50 (wild-type BaF3) [nM]
Cc1ccc(C(=O)Nc2cc(CN3CCN(C)CC3)cc(C(F)(F)F)c2)cc1Oc1nc(-c2cccnc2)nc2cc[nH]c12 [III-q-1],1330,1540,1430
CN1CCN(Cc2ccc(C(=O)Nc3cccc(Oc4nc(-c5cccnc5)nc5[nH]ncc45)c3)cc2C(F)(F)F)CC1 [II-h-3],343,820,4090
Cc1ccc(Oc2nc(-c3ccc(O)cc3)nc3cc[nH]c23)cc1NC(=O)c1ccc(CN2CCN(C)CC2)c(C(F)(F)F)c1 [III-j-13],1720,2400,4150
Cc1ccc(Oc2nc(-c3cccnc3)nc3ccn(C)c23)cc1C(=O)Nc1cc(CN2CCN(C)CC2)cc(C(F)(F)F)c1 [III-r-3],3770,2720,3650
CN1CCN(Cc2ccc(C(=O)Nc3cc(Oc4nc(-c5ccncc5)nc5ccn(C)c45)ccc3Cl)cc2C(F)(F)F)CC1 [III-k-4],11.2,70.7,1620
Cc1ccc(Oc2nc(-c3ccccc3)nc3ccn(C)c23)cc1NC(=O)c1ccc(CN2CCN(C)CC2)c(C(F)(F)F)c1 [III-j-7],1270,1370,2560
CN1CCN(Cc2ccc(C(=O)Nc3cc(Oc4nc(-c5ccccc5)nc5cc[nH]c45)ccc3Cl)cc2C(F)(F)F)CC1 [III-k-17],1410,2610,2630
Cc1ccc(NC(=O)c2ccc(CN3CCN(C)CC3)c(C(F)(F)F)c2)cc1Oc1nc(-c2cccnc2)nc2ccsc12 [VI-i-1],1950,1470,1530
Cc1ccc(-c2nc(Oc3cc(C(=O)Nc4ccc(CN5CCN(C)CC5)c(C(F)(F)F)c4)ccc3C)c3c(ccn3C)n2)cc1 [III-m-12],4020,4280,3580
Cc1ccc(Oc2nc(-c3ccsc3)nc3ccn(C)c23)cc1NC(=O)c1ccc(CN2CCN(C)CC2)c(C(F)(F)F)c1 [III-j-8],1140,1320,1880
CN1CCN(Cc2ccc(C(=O)Nc3cc(Oc4nc(-c5cccnc5)nc5[nH]ncc45)ccc3Cl)cc2C(F)(F)F)CC1 [II-k-3],567,1350,1340
Cc1ccc(Oc2nc(-c3ccc(N)cc3)nc3cc[nH]c23)cc1NC(=O)c1ccc(CN2CCN(C)CC2)c(C(F)(F)F)c1 [III-j-15],745,620,1200
Cc1ccc(Oc2cc(-c3ccncc3)nc3[nH]ccc23)cc1C(=O)Nc1ccc(CN2CCN(C)CC2)c(C(F)(F)F)c1 [V-n-2],580,616,2070
Cc1ccc(C(=O)Nc2cc(CN3CCN(C)CC3)cc(C(F)(F)F)c2)cc1Oc1nc(-c2ccncc2)nc2ccsc12 [VI-q-2],1520,1470,1520
Cc1ccc(Oc2nc(-c3cccnc3)nc3ccsc23)cc1C(=O)Nc1ccc(CN2CCN(C)CC2)c(C(F)(F)F)c1 [VI-n-1],3240,2840,4190
Cc1ccc(C(=O)Nc2ccc(CN3CCN(C)CC3)c(C(F)(F)F)c2)cc1Oc1nc(-c2cccc(O)c2)nc2cc[nH]c12 [III-m-7],1410,2350,4330
